Source: ChEMBL document CHEMBL3758091, “Identification of N-(6-mercaptohexyl)-3-(4-pyridyl)-1H-pyrazole-5-carboxamide and its disulfide prodrug as potent histone deacetylase inhibitors with in vitro and in vivo anti-tumor efficacy” (Eur J Med Chem, 2016)

Tests used:
[1] = Antitumor activity against human HCT116 cells xenografted in athymic nude mouse assessed as tumor growth inhibition at 40 mg/kg, ip qd administered for 14 days measured every other day during compound dosing; format: functional; details: HCT-116, ip, 336 h, read-out: TGI
[2] = cells; format: functional; details: Homo sapiens, PC-3, 96 h
Description: Growth inhibition of human PC3 cells after 96 hrs by MTT assay

[3] = tested on: MCF7; assay: cells; format: functional; details: Homo sapiens, MCF7, 96 h
Description: Growth inhibition of human MCF7 cells after 96 hrs by MTT assay

[4] = tested on: MDA-MB-231; assay: cells; format: functional; details: Homo sapiens, MDA-MB-231, 96 h
Description: Growth inhibition of human MDA-MB-231 cells after 96 hrs by MTT assay

[5] = Cytotoxicity against HEK293 cells assessed as growth inhibition after 96 hrs by MTT assay; details: human
[6] = cells; format: functional; details: Homo sapiens, ASPC1, 96 h
Description: Growth inhibition of human Aspc-1 cells after 96 hrs by MTT assay

[7] = cells; format: functional; details: Homo sapiens, HCT-116, 96 h
Description: Growth inhibition of human HCT116 cells after 96 hrs by MTT assay

[8] = tested on: A549; assay: cells; format: functional; details: Homo sapiens, A549, 96 h
Description: Growth inhibition of human A549 cells after 96 hrs by MTT assay

[9] = biological target: T1, Protein deacetylase HDAC6 (Homo sapiens) (UniProt Q9UBN7); assay: Inhibition of HDAC6 in human HCT116 cells assessed as increase in acetylated tubulin level after 24 hrs by Western blot analysis; format: cell-based; details: HCT-116
T1 sequence (whole entry): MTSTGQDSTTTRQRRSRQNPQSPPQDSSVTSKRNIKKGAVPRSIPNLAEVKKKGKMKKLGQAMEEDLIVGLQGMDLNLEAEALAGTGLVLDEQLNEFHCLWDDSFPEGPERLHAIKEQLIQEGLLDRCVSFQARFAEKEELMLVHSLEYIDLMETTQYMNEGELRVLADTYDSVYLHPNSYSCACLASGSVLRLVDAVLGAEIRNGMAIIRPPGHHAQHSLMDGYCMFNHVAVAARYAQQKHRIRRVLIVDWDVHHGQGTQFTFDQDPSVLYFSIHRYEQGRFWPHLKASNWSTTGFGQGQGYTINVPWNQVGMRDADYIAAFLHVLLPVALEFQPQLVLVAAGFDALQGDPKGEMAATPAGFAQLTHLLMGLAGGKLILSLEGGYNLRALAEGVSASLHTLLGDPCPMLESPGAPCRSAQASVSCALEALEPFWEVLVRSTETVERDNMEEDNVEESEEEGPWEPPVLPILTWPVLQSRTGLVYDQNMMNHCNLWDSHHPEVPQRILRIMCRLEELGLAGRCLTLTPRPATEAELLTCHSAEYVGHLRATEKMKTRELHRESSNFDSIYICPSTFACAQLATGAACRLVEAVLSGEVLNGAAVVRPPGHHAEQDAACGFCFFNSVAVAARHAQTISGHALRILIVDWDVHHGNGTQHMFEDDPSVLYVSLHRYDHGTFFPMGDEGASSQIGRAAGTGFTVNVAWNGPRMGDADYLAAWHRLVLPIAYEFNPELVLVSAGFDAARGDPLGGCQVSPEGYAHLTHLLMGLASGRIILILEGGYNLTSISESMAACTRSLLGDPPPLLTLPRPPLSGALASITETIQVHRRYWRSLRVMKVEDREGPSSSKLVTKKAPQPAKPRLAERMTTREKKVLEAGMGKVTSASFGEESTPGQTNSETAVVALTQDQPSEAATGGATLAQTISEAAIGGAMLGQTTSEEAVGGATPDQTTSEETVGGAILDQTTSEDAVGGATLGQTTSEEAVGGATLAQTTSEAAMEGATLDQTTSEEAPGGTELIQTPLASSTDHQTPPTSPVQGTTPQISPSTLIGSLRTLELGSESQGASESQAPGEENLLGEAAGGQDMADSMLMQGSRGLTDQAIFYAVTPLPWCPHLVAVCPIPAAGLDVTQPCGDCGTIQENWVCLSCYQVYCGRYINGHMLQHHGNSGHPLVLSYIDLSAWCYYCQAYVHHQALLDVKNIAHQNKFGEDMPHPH

[10] = biological target: T2, Histone deacetylase 1 (Homo sapiens, UniProt Q13547); assay: Inhibition of HDAC1 in human HCT116 cells assessed as increase in acetylated histone H3 level after 24 hrs by Western blot analysis; format: cell-based; details: HCT-116
[11] = tested on: HT-29; assay: Growth inhibition of human HT-29 cells after 96 hrs by MTT assay; format: functional
[12] = biological target: Histone deacetylase 4 (Homo sapiens, UniProt P56524); assay: Inhibition of recombinant human HDAC4 using Boc-Lys(TFA)-AMC as substrate preincubated for 15 mins followed by substrate addition measured after 60 mins by fluorescence-based assay
[13] = biological target: Histone deacetylase 2 (Homo sapiens, UniProt Q92769); assay: Inhibition of recombinant human HDAC2 using Boc-Lys(Ac)-AMC as substrate preincubated for 15 mins followed by substrate addition measured after 60 mins by fluorescence-based assay
[14] = biological target: T2, Histone deacetylase 1; assay: Inhibition of recombinant human HDAC1 using Boc-Lys(Ac)-AMC as substrate preincubated for 15 mins followed by substrate addition measured after 60 mins by fluorescence-based assay
[15] = biological target: Histone deacetylase 3 (Homo sapiens, UniProt O15379); assay: Inhibition of recombinant human HDAC3 using Boc-Lys(Ac)-AMC as substrate preincubated for 15 mins followed by substrate addition measured after 60 mins by fluorescence-based assay
[16] = biological target: Histone deacetylase; assay: Inhibition of HDAC in human HeLa cell nuclear extract using Boc-Lys(Ac)-AMC as substrate preincubated for 15 mins followed by substrate addition measured after 60 mins by fluorescence-based assay
[17] = biological target: T3, Protein deacetylase HDAC6 (Homo sapiens, UniProt Q9UBN7); assay: Inhibition of recombinant human HDAC6 using Boc-Lys(Ac)-AMC as substrate preincubated for 15 mins followed by substrate addition measured after 60 mins by fluorescence-based assay
T3 sequence (Q9UBN7 whole entry): T1 sequence (whole entry)

[18] = biological target: T4, Histone deacetylase 8 (Homo sapiens, UniProt Q9BY41); assay: Inhibition of recombinant human HDAC8 using Boc-Lys(TFA)-AMC as substrate preincubated for 15 mins followed by substrate addition measured after 60 mins by fluorescence-based assay
T4 sequence (Q9BY41 whole entry): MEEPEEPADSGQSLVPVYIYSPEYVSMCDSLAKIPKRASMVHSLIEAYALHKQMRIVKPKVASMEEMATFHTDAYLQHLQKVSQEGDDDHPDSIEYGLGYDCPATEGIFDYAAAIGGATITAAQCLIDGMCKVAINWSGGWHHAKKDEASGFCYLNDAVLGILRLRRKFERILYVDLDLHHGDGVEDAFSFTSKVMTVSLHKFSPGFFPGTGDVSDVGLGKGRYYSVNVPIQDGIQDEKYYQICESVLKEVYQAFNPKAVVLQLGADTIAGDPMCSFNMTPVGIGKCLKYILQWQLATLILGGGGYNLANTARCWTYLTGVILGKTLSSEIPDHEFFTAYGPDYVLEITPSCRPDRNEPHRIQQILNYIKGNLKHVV

[19] = biological target: T5, Histone deacetylase 11 (Homo sapiens, UniProt Q96DB2); assay: Inhibition of recombinant human HDAC11 using Boc-Lys(TFA)-AMC as substrate preincubated for 15 mins followed by substrate addition measured after 60 mins by fluorescence-based assay
T5 sequence (Q96DB2 whole entry): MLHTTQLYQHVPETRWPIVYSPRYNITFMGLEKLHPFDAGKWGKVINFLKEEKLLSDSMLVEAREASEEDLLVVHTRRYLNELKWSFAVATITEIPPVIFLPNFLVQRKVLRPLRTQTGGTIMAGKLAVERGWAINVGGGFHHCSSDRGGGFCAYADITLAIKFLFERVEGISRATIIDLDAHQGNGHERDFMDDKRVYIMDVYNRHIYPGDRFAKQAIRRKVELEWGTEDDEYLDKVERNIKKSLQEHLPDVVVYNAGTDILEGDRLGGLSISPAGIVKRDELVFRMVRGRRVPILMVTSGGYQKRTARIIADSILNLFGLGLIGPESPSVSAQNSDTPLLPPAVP

[20] = tested on: Mus musculus; assay: Toxicity in athymic nude mouse xenografted with human HCT116 cells assessed as mortality at 40 mg/kg, ip qd administered for 14 days measured every other day during compound dosing; format: organism-based, HCT-116; details: in vivo, 336 h
[21] = tested on: Mus musculus; assay: Toxicity in athymic nude mouse xenografted with human HCT116 cells assessed as reduction in body weight at 40 mg/kg, ip qd administered for 14 days measured every other day during compound dosing; format: organism-based, HCT-116; details: in vivo, 336 h
[22] = tested on: Mus musculus; assay: Toxicity in athymic nude mouse xenografted with human HCT116 cells assessed as mortality at 40 to 80 mg/kg, ip qd administered for 14 days measured every other day during compound dosing; format: organism-based, HCT-116; details: in vivo, 336 h
[23] = tested on: HCT-116; assay: Antitumor activity against human HCT116 cells xenografted in ip dosed athymic nude mouse assessed as tumor growth inhibition qd administered for 14 days measured every other day during compound dosing; format: functional, organism-based
[24] = tested on: Mus musculus; assay: Toxicity in athymic nude mouse xenografted with human HCT116 cells assessed as reduction in body weight at 40 to 80 mg/kg, ip qd administered for 14 days measured every other day during compound dosing; format: organism-based, HCT-116; details: in vivo, 336 h
[25] = Antitumor activity against human HCT116 cells xenografted in athymic nude mouse assessed as tumor growth inhibition at 80 mg/kg, ip qd administered for 14 days measured every other day during compound dosing; format: functional; details: HCT-116, ip, 336 h, read-out: TGI

Histone deacetylase 3, sequence (O15379 whole entry): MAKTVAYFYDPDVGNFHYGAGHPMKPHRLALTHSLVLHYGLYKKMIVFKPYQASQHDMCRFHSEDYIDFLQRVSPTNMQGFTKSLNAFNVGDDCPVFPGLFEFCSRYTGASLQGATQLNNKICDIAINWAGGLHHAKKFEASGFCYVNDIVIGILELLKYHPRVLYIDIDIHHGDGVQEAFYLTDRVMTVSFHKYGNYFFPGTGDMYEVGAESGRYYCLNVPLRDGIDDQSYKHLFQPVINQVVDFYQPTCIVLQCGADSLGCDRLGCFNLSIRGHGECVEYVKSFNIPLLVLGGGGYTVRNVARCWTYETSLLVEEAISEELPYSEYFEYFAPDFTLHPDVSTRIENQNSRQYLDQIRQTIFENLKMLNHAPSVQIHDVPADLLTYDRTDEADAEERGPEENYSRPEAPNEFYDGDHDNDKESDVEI
Histone deacetylase 4, sequence (P56524 whole entry): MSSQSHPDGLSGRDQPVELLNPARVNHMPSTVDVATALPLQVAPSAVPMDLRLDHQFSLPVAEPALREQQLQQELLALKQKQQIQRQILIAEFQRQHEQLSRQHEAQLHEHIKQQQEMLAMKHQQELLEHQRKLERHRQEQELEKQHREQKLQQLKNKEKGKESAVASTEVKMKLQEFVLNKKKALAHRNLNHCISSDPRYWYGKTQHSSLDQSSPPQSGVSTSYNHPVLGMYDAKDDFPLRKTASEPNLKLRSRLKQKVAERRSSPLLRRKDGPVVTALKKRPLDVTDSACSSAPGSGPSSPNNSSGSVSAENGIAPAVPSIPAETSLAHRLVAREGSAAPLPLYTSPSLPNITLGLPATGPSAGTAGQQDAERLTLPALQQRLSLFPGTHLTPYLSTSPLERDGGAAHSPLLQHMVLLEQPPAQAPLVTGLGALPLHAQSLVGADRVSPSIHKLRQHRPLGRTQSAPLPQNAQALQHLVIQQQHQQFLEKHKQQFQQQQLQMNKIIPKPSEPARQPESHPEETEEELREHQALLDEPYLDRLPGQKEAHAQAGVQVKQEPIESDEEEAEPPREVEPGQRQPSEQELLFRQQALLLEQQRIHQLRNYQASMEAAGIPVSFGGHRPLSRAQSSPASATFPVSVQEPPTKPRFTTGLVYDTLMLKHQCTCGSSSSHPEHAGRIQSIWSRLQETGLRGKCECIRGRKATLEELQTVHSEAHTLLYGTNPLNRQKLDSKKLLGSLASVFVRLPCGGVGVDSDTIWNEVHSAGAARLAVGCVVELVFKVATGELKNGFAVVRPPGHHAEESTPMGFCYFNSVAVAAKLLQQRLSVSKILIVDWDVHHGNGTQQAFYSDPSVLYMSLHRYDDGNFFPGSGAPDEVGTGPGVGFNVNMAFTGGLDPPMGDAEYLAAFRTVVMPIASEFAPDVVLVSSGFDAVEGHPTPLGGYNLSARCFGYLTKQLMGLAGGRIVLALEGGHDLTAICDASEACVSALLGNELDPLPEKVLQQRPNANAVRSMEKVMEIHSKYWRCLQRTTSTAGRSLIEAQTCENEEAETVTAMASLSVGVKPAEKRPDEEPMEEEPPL
Histone deacetylase 2, sequence (Q92769 whole entry): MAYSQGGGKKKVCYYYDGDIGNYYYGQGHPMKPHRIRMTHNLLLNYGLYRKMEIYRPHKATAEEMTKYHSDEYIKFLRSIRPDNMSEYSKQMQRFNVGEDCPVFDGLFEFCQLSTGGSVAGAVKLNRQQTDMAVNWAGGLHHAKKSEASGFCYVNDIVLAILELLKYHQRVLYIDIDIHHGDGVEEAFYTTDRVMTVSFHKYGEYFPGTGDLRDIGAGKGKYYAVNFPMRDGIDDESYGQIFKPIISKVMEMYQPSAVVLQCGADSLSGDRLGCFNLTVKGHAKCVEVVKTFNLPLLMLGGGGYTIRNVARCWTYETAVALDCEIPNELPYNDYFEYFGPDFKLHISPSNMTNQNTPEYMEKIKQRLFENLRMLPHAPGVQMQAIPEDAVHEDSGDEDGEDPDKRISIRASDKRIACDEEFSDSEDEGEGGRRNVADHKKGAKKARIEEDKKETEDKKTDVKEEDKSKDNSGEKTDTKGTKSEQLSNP
T2 sequence (Q13547 whole entry): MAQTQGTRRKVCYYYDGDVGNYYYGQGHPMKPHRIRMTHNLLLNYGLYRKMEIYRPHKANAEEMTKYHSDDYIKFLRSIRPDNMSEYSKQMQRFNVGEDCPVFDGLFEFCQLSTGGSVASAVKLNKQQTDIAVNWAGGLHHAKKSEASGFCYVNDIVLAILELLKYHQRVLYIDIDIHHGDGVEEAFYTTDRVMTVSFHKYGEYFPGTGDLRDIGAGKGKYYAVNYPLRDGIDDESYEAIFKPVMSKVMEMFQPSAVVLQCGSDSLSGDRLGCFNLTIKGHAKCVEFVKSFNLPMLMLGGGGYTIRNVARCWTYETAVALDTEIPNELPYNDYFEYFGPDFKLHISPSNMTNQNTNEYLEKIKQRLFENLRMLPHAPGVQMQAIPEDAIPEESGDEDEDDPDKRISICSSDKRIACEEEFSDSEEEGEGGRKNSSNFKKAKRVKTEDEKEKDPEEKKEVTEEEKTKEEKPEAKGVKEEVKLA

Structure (SMILES): O=C(NCCCCCCSSCCCCCCNC(=O)c1cc(-c2cccnc2)n[nH]1)c1cc(-c2cccnc2)n[nH]1
- inhibition in vivo at 40 mg/kg [1]: 28%
- GI50 [2]: 1.25 µM
- GI50 [3]: 3.79 µM
- GI50 [4]: 10.3 µM
- GI50 at 96 h [5]: 13.5 µM
- GI50 [6]: 3.6 µM
- GI50 [7]: 3.03 µM
- GI50 [8]: 5.31 µM
- inhibition [9]: Dose-dependent effect
- inhibition [10]: Dose-dependent effect
- GI50 ([11]; Homo sapiens, HT-29, 96 h): 5.29 µM

Structure (SMILES): O=C(NCCCCCCS)c1cc(-c2cnccn2)n[nH]1
- IC50 [12]: > 10 µM
- IC50 [13]: 0.068 µM
- IC50 [14]: 0.015 µM
- GI50 [3]: > 50 µM
- IC50 [15]: 0.023 µM
- IC50 [16]: 0.018 µM
- IC50 [17]: 0.022 µM
- GI50 [7]: > 50 µM
- IC50 [18]: > 10 µM
- IC50 [19]: > 10 µM

Structure (SMILES): O=C(CCCCCCC(=O)Nc1ccccc1)NO [VORINOSTAT]
- Activity [20]: Non-toxic
- Activity [21]: Non-toxic
- GI50 [11]: 2.88 µM

Structure (SMILES): O=C(NCCCCCCSSCCCCCCNC(=O)c1cc(-c2ccncc2)n[nH]1)c1cc(-c2ccncc2)n[nH]1
- inhibition in vivo at 40 mg/kg [1]: 27%
- GI50 [2]: 4.74 µM
- GI50 [3]: 7.15 µM
- GI50 [4]: 27.3 µM
- GI50 at 96 h [5]: 14.8 µM
- GI50 [6]: 25.3 µM
- GI50 [7]: 8.93 µM
- GI50 [8]: 6.07 µM
- inhibition [9]: Dose-dependent effect
- Activity [22]: Non-toxic
- inhibition [10]: Dose-dependent effect
- inhibition [23]: Dose-dependent effect
- GI50 ([11]; Homo sapiens, HT-29, 96 h): 6.92 µM
- Activity [24]: Non-toxic
- inhibition in vivo at 80 mg/kg [25]: 48%

Structure (SMILES): O=C(NCCCCCCS)c1cc(-c2cccnc2)n[nH]1
- IC50 [12]: > 10 µM
- IC50 [13]: 0.221 µM
- IC50 [14]: 0.052 µM
- GI50 [2]: 9.4 µM
- GI50 [3]: 11.5 µM
- GI50 [4]: 42.4 µM
- GI50 at 96 h [5]: > 50 µM
- IC50 [15]: 0.029 µM
- IC50 [16]: 0.015 µM
- GI50 [6]: 14.6 µM
- IC50 [17]: 0.026 µM
- GI50 [7]: 18.1 µM
- IC50 [18]: > 10 µM
- GI50 [8]: 19.3 µM
- inhibition [9]: Dose-dependent effect
- inhibition [10]: Dose-dependent effect
- IC50 [19]: > 10 µM
- GI50 ([11]; Homo sapiens, HT-29, 96 h): 22 µM

Structure (SMILES): O=C(NCCCCCCS)c1cc(-c2ccncc2)n[nH]1
- IC50 [12]: > 10 µM
- IC50 [13]: 0.072 µM
- IC50 [14]: 0.012 µM
- GI50 [2]: 11 µM
- GI50 [3]: 12.2 µM
- GI50 [4]: > 50 µM
- GI50 at 96 h [5]: 17.5 µM
- IC50 [15]: 0.011 µM
- IC50 [16]: 0.008 µM
- GI50 [6]: 36.9 µM
- IC50 [17]: 0.018 µM
- GI50 [7]: 25.3 µM
- IC50 [18]: > 10 µM
- GI50 [8]: 14.4 µM
- inhibition [9]: Dose-dependent effect
- inhibition [10]: Dose-dependent effect
- IC50 [19]: > 10 µM
- GI50 ([11]; Homo sapiens, HT-29, 96 h): 10.2 µM
